Measurements as given in PMC6072100, “Exploring the links between peptoid antibacterial activity and toxicity” (MedChemComm, 2017).
Read-outs that look alike come from different tables or passages of the source. Square brackets hold non-standard residues; d marks the D form. Peptide text beside a SMILES is read from it. Gly(N-(CH2)6NH2) = NCCCCCCNCC(=O)O; Gly(N-2-aminoethyl) = NCCNCC(=O)O; Nspe = C[C@H](NCC(=O)O)c1ccccc1; Nphe = O=C(O)CNCc1ccccc1; Nlys = NCCCCNCC(=O)O

Columns and labels:
Assay type in all cases: cell-based
[1] = tested on: Escherichia coli K-12 wild-type strain (W3110/ATCC27325); details: lowest concentration completely inhibiting growth, 37 °C, 16 h; range 2–100 μM
Method: (§1) Escherichia coli K-12 wild-type strain (W3110/ATCC27325, F^–, λ^–, rpoS(Am), rph-1, Inv(rrnD-rrnE)), Pseudomonas aeruginosa PA01 (ATCC 15692) Staphylococcus aureus (3R7089 strain Oxford/ATCC9144) and Staphylococcus epidermidis (laboratory strain from clinical isolate) were selected for bacteriological studies as representative Gram-negative (E. coli and P. aeruginosa) and Gram-positive (S. aureus and S. epidermidis) species. Bacterial cultures were prepared by streaking bacterial strains onto LB agar plates with an inoculation loop and incubated overnight at 37 °C. A single colony was selected and placed in 5 mL of Iso-sensitest broth (Oxoid, ThermoScientific) and incubated with shaking for 16–18 h at 37 °C to provide liquid cultures for testing.
(§2) MIC values were obtained according to the protocol described by J. M. Andrews et al.[58] and were conducted in 96-well plates (Sarstedt). Bacteria were grown from overnight cultures in Iso-sensitest broth to an A650nm of 0.07 equivalent to a 0.5 MacFarland standard (240 μM BaCl2 in 0.18 M H2SO4). This culture was diluted ten-fold with Iso-sensitest broth before use. Peptoids were initially dissolved in DMSO (5 mM) and diluted further in Iso-sensitest broth to achieve a concentration range of 4–200 μM using 2-fold serial dilutions. 50 μl of inoculum and 50 μl of peptoid solution were added to each test well (final concentration range of 2–100 μM). Experiments were performed in triplicate. A positive control for bacterial growth contained only the inoculum and Iso-sensitest broth. Other controls contained the inoculum and serial dilutions of ampicillin (from 250 μg mL^–1 to 2 μg mL^–1), serial dilutions of DMSO and the inoculum to confirm no inhibitory effect on bacterial growth, and Iso-sensitest broth alone as a sterile control. […] Quantitative data was attained from absorbance values using a Biotek Synergy H4 plate reader.
(§3) Antibacterial MIC determination
as §1, with “(W3110 / ATCC27325, F-, λ-,” for “(W3110/ATCC27325, F^–, λ^–,”, “Oxford / ATCC9144)” for “Oxford/ATCC9144)”, “°C.” for “°C. A single colony was selected and placed in 5 mL of Iso-sensitest broth (Oxoid, ThermoScientific) and incubated with shaking for 16–18 h at 37 °C to provide liquid cultures for testing.”
(§4) A single colony was selected and placed in 5 mL of Iso-sensitest broth (Oxoid, ThermoScientific) and incubated with shaking for 16-18 h at 37 °C to provide liquid […]
(§5) MIC values were obtained according to the protocol described by J. M. Andrews et al.1 and were conducted in 96-well plates (Sarstedt). Bacteria were grown from overnight cultures in Iso-sensitest broth to an A650nm of 0.07 equivalent to a 0.5 MacFarland standard (240 μM BaCl2 in 0.18 M H2SO4). This culture was diluted ten-fold with Iso-sensitest broth before use. Peptoids were initially dissolved in DMSO (5 mM) and diluted further in Iso-sensitest broth to achieve a concentration range of 4 – 200 µM using 2-fold serial dilutions. 50 μl of inoculum and 50 μl of peptoid solution were added to each test well (final concentration range of 2 – 100 µM). Experiments were performed in triplicate. A positive control for bacterial growth contained only the inoculum and Iso-sensitest broth. Other controls contained the inoculum and serial dilutions of ampicillin (from 250 µg/mL to 2 µg/mL), serial dilutions of DMSO and the inoculum to confirm no inhibitory effect on bacterial growth, and Iso-sensitest broth alone as a sterile control. […]
(§6) growth after incubation at 37 °C for 16 h with shaking. Quantitative data was attained from absorbance values using a Biotek Synergy H4 plate reader.

[2] = tested on: Pseudomonas aeruginosa PA01 (ATCC 15692)
Method: as §1, §2, §3
as §1, with “(W3110 / ATCC27325, F-, λ-,” for “(W3110/ATCC27325, F^–, λ^–,”, “Oxford / ATCC9144)” for “Oxford/ATCC9144)”, “°C.” for “°C. A single colony was selected and placed in 5 mL of Iso-sensitest broth (Oxoid, ThermoScientific) and incubated with shaking for 16–18 h at 37 °C to provide liquid cultures for testing.”
as §4, §5, §6

[3] = tested on: Staphylococcus aureus (3R7089 strain Oxford/ATCC9144)
Method: as §1, §2, §3
as §1, with “(W3110 / ATCC27325, F-, λ-,” for “(W3110/ATCC27325, F^–, λ^–,”, “Oxford / ATCC9144)” for “Oxford/ATCC9144)”, “°C.” for “°C. A single colony was selected and placed in 5 mL of Iso-sensitest broth (Oxoid, ThermoScientific) and incubated with shaking for 16–18 h at 37 °C to provide liquid cultures for testing.”
as §4, §5, §6

[4] = tested on: Staphylococcus epidermidis (laboratory strain from clinical isolate); details: 16 h
Method: as §1, §2, §3
as §1, with “(W3110 / ATCC27325, F-, λ-,” for “(W3110/ATCC27325, F^–, λ^–,”, “Oxford / ATCC9144)” for “Oxford/ATCC9144)”, “°C.” for “°C. A single colony was selected and placed in 5 mL of Iso-sensitest broth (Oxoid, ThermoScientific) and incubated with shaking for 16–18 h at 37 °C to provide liquid cultures for testing.”
as §4, §5, §6

[5] = laboratory strain from clinical isolate
[6] = lowest concentration completely inhibiting growth, 37 °C, 16 h, range 2–100 μM
[7] = lowest concentration completely inhibiting growth, 37 °C, range 2–100 μM

Structure (SMILES)	MIC E. coli [1]	MIC P. aeruginosa ([2]; ATCC 15692, 16 h)	MIC S. aureus ([3]; ATCC9144, 16 h)	MIC S. epidermidis [4, 5]	MIC S. aureus [3, 6]	MIC P. aeruginosa [2, 6]	MIC S. epidermidis [4, 7]
NCCCCCCNCC(=O)N(CC(=O)N(CC(=O)N(CCCCCCN)CC(=O)N(CC(=O)N(CC(=O)N(CCCCCCN)CC(=O)N(CC(=O)N(CC(=O)N(CCCCCCN)CC(=O)N(CC(=O)N(CC(N)=O)Cc1ccccc1)Cc1ccccc1)Cc1ccccc1)Cc1ccccc1)Cc1ccccc1)Cc1ccccc1)Cc1ccccc1)Cc1ccccc1 [Peptoid 1, (NahNpheNphe)4] (H-[Gly(N-(CH2)6NH2)][Nphe][Nphe][Gly(N-(CH2)6NH2)][Nphe][Nphe][Gly(N-(CH2)6NH2)][Nphe][Nphe][Gly(N-(CH2)6NH2)][Nphe][Nphe]-NH2)	13 µM	>100 µM					
NCCCCCCNCC(=O)N(CC(=O)N(CC(=O)N(CCCCCCN)CC(=O)N(CC(=O)N(CC(=O)N(CCCCCCN)CC(=O)N(CC(=O)N(CC(N)=O)Cc1ccccc1)Cc1ccccc1)Cc1ccccc1)Cc1ccccc1)Cc1ccccc1)Cc1ccccc1 [Peptoid 2, (NahNpheNphe)3] (H-[Gly(N-(CH2)6NH2)][Nphe][Nphe][Gly(N-(CH2)6NH2)][Nphe][Nphe][Gly(N-(CH2)6NH2)][Nphe][Nphe]-NH2)	50 µM	>100 µM					
NCCCCCCNCC(=O)N(CC(=O)N(CC(=O)N(CCCCCCN)CC(=O)N(CC(=O)N(CC(N)=O)Cc1ccccc1)Cc1ccccc1)Cc1ccccc1)Cc1ccccc1 [Peptoid 3, (NahNpheNphe)2] (H-[Gly(N-(CH2)6NH2)][Nphe][Nphe][Gly(N-(CH2)6NH2)][Nphe][Nphe]-NH2)	>100 µM	>100 µM	>100 µM	>100 µM			
NCCCCNCC(=O)N(CC(=O)N(CC(=O)N(CCCCN)CC(=O)N(CC(=O)N(CC(=O)N(CCCCN)CC(=O)N(CC(=O)N(CC(=O)N(CCCCN)CC(=O)N(CC(=O)N(CC(N)=O)Cc1ccccc1)Cc1ccccc1)Cc1ccccc1)Cc1ccccc1)Cc1ccccc1)Cc1ccccc1)Cc1ccccc1)Cc1ccccc1 [Peptoid 4, (NLysNpheNphe)4] (H-[Nlys][Nphe][Nphe][Nlys][Nphe][Nphe][Nlys][Nphe][Nphe][Nlys][Nphe][Nphe]-NH2)	13 µM				3 µM	50 µM	2 µM
NCCCCNCC(=O)N(CC(=O)N(CC(=O)N(CCCCN)CC(=O)N(CC(=O)N(CC(=O)N(CCCCN)CC(=O)N(CC(=O)N(CC(N)=O)Cc1ccccc1)Cc1ccccc1)Cc1ccccc1)Cc1ccccc1)Cc1ccccc1)Cc1ccccc1 [Peptoid 5, (NLysNpheNphe)3]	50 µM	>100 µM			25 µM	100 µM	6 µM
NCCCCNCC(=O)N(CC(=O)N(CC(=O)N(CCCCN)CC(=O)N(CC(=O)N(CC(N)=O)Cc1ccccc1)Cc1ccccc1)Cc1ccccc1)Cc1ccccc1 [Peptoid 6, (NLysNpheNphe)2] (H-[Nlys][Nphe][Nphe][Nlys][Nphe][Nphe]-NH2)	>100 µM	>100 µM	>100 µM	>100 µM	100 µM	100 µM	100 µM
NCCNCC(=O)N(CC(=O)N(CC(=O)N(CCN)CC(=O)N(CC(=O)N(CC(=O)N(CCN)CC(=O)N(CC(=O)N(CC(=O)N(CCN)CC(=O)N(CC(=O)N(CC(N)=O)Cc1ccccc1)Cc1ccccc1)Cc1ccccc1)Cc1ccccc1)Cc1ccccc1)Cc1ccccc1)Cc1ccccc1)Cc1ccccc1 [Peptoid 7, (NaeNpheNphe)4] (H-[Gly(N-2-aminoethyl)][Nphe][Nphe][Gly(N-2-aminoethyl)][Nphe][Nphe][Gly(N-2-aminoethyl)][Nphe][Nphe][Gly(N-2-aminoethyl)][Nphe][Nphe]-NH2)	13 µM				2 µM	50 µM	6 µM
NCCNCC(=O)N(CC(=O)N(CC(=O)N(CCN)CC(=O)N(CC(=O)N(CC(=O)N(CCN)CC(=O)N(CC(=O)N(CC(N)=O)Cc1ccccc1)Cc1ccccc1)Cc1ccccc1)Cc1ccccc1)Cc1ccccc1)Cc1ccccc1 [Peptoid 8, (NaeNpheNphe)3] (H-[Gly(N-2-aminoethyl)][Nphe][Nphe][Gly(N-2-aminoethyl)][Nphe][Nphe][Gly(N-2-aminoethyl)][Nphe][Nphe]-NH2)	>100 µM	>100 µM		>100 µM	13 µM	100 µM	100 µM
NCCNCC(=O)N(CC(=O)N(CC(=O)N(CCN)CC(=O)N(CC(=O)N(CC(N)=O)Cc1ccccc1)Cc1ccccc1)Cc1ccccc1)Cc1ccccc1 [Peptoid 9, (NaeNpheNphe)2] (H-[Gly(N-2-aminoethyl)][Nphe][Nphe][Gly(N-2-aminoethyl)][Nphe][Nphe]-NH2)	>100 µM	>100 µM	>100 µM	>100 µM	100 µM	100 µM	100 µM
C[C@@H](c1ccccc1)N(CC(N)=O)C(=O)CN(C(=O)CN(CCCCCCN)C(=O)CN(C(=O)CN(C(=O)CN(CCCCCCN)C(=O)CN(C(=O)CN(C(=O)CN(CCCCCCN)C(=O)CN(C(=O)CN(C(=O)CNCCCCCCN)[C@@H](C)c1ccccc1)[C@@H](C)c1ccccc1)[C@@H](C)c1ccccc1)[C@@H](C)c1ccccc1)[C@@H](C)c1ccccc1)[C@@H](C)c1ccccc1)[C@@H](C)c1ccccc1 [Peptoid 10, (NahNspeNspe)4] (H-[Gly(N-(CH2)6NH2)][Nspe][Nspe][Gly(N-(CH2)6NH2)][Nspe][Nspe][Gly(N-(CH2)6NH2)][Nspe][Nspe][Gly(N-(CH2)6NH2)][Nspe][Nspe]-NH2; N-terminus assumed)	25 µM				2 µM	50 µM	2 µM
C[C@@H](c1ccccc1)N(CC(N)=O)C(=O)CN(C(=O)CN(CCCCCCN)C(=O)CN(C(=O)CN(C(=O)CN(CCCCCCN)C(=O)CN(C(=O)CN(C(=O)CNCCCCCCN)[C@@H](C)c1ccccc1)[C@@H](C)c1ccccc1)[C@@H](C)c1ccccc1)[C@@H](C)c1ccccc1)[C@@H](C)c1ccccc1 [Peptoid 11, (NahNspeNspe)3] (H-[Gly(N-(CH2)6NH2)][Nspe][Nspe][Gly(N-(CH2)6NH2)][Nspe][Nspe][Gly(N-(CH2)6NH2)][Nspe][Nspe]-NH2)	25 µM	>100 µM					
C[C@@H](c1ccccc1)N(CC(N)=O)C(=O)CN(C(=O)CN(CCCCCCN)C(=O)CN(C(=O)CN(C(=O)CNCCCCCCN)[C@@H](C)c1ccccc1)[C@@H](C)c1ccccc1)[C@@H](C)c1ccccc1 [Peptoid 12, (NahNspeNspe)2]	>100 µM	>100 µM	>100 µM				
C[C@@H](c1ccccc1)N(CC(N)=O)C(=O)CN(C(=O)CN(CCCCN)C(=O)CN(C(=O)CN(C(=O)CN(CCCCN)C(=O)CN(C(=O)CN(C(=O)CN(CCCCN)C(=O)CN(C(=O)CN(C(=O)CNCCCCN)[C@@H](C)c1ccccc1)[C@@H](C)c1ccccc1)[C@@H](C)c1ccccc1)[C@@H](C)c1ccccc1)[C@@H](C)c1ccccc1)[C@@H](C)c1ccccc1)[C@@H](C)c1ccccc1 [Peptoid 13, (NLysNspeNspe)4] (H-[Nlys][Nspe][Nspe][Nlys][Nspe][Nspe][Nlys][Nspe][Nspe][Nlys][Nspe][Nspe]-NH2)	25 µM				2 µM	50 µM	1 µM
